Laboratory results: patent US11952364B2, “TRK inhibitors useful as anticancer drugs” (TYLIGAND BIOSCIENCE (SHANGHAI) LIMITED, priority 2018, dated 2024)
Where two headings read alike, the source gives them in different places.

Test system: Ba/F3 ETV6-NTRK3-G696C cells
Test: Proliferation of Ba/F3 ETV6-NTRK3-G696C cells (CellTiter-Glo)
Format: cell-based, mouse
Conditions: Mus musculus, read-out: Ba/F3 ETV6-NTRK3-G696C, IC50
From the text: Ba/F3 ETV6-NTRK3-G696C is a stable transgenic cell line constructed by KYinno Biotechnology Co., Ltd. on mouse primary B cell Ba/F3 wherein NTRK3 is highly expressed with a mutation of G at position […] to C and fused with ETV6 to form ETV6-NTRK3. • [Test method]: Promega's CellTiter-Glo® Luminescent Cell Viability Assay kit was used to evaluate the inhibitory activity of the compounds on the proliferation of Ba/F3 ETV6-NTRK3-G696C cells. • [Instrument]: Spectramax M3 multifunctional microplate reader from Molecular Devices. • [Test materials]: Ba/F3 ETV6-NTRK3-G696C cell line (constructed by KYinno Biotechnology Co., Ltd. (Beijing)), 96-well transparent flat-bottomed black-walled cell culture plate (Corning, cat #3603), RPMI-1640 media (GE, product number #SH30027.01), fetal bovine serum FBS (Thermo Fisher, cat #10099-141), CellTiter-Glo® Luminescent Cell Viability Assay kit (Promega, cat #G7572), PBS (Solarbio, cat #P1020), DMSO (Sigma, cat #D2650). • [Experimental procedure]: When resuscitating Ba/F3 ETV6-NTRK3-G696C cells, • the freezing tube was quickly shaken in a 37° C. water bath to melt within 1 minute. The thawed cell suspension was mixed uniformly with RPMI1640 medium containing 10% FBS, centrifuged at 1000 rpm for 5 minutes, and the supernatant discarded. 5 mL of complete medium (RPMI1640 medium with 10% FBS) was taken to resuspend the cell pellets, charged into a cell culture flask with a bottom area of 25 cm^2, and incubated in a cell incubator at 37° C., 95% humidity and 5% CO2. Cells were allowed to passage when the number of cells reached about 10^6 cells/mL. For cell passage, the old cell suspension was directly pipetted evenly, 1/5 of the cell suspension was kept, 4 mL of new complete medium was added, after pipetting evenly, the cell flask was placed in the cell incubator for further culturing. Cell plating was performed when the number of cells reached about 10^6 cells/mL again. For cell plating, 1/5 of the cell suspension was kept for further culturing as in the cell passage method, and the remaining 4/5 of the cell suspension was placed in a 15 mL centrifuge tube, detected for cell viability by Trypan blue exclusion method to ensure that cell viability was above 90%. A cell suspension with a density of 5.56×10^4 viable cells/mL was prepared with complete medium, and 90 μL of such cell suspension was added to a 96-well cell culture plate to obtain the cell density of 5000 viable cells/mL in the cell culture plate. A control group containing no cells, no compound and only complete medium (i.e. culture medium control) and a control group containing no compound but containing cells (i.e. cell control) were set. The cell plate was placed in a cell incubator overnight. The 10 mM compound stock solution in DMSO was first serially diluted with DMSO at a dilution factor of 3.16 times, to obtain 9 concentrations, and the 10th concentration was set as DMSO control without compound. Then, PBS was used to dilute the DMSO solutions of compounds of different concentrations, at a dilution factor of 100 times, so that the DMSO concentration in the compound solution of each concentration was 1%. Finally, 10 μL of each of the above solutions was added to the corresponding cell culture plate, so that the initial compound concentration was 10 μM, with the remaining concentrations being successively diluted at a dilution factor of 3.16 times, and the DMSO content in the cell culture plate was 0.1%. The cell plate was placed in a cell incubator and cultured for 72 hours. For endpoint detection, the CellTiter-Glo reagent was melted, and the cell plate was moved to room temperature to equilibrate for 30 minutes, added with 100 μL of CellTiter-Glo for each well, and shaken on an orbital shaker for 5 minutes to fully lyse the cells. […]

IC50 (BaF3, Table 7-1, separate test) [nM] | IC50 (BaF3, 72 h, Table 7, 72 hours) [nM] | Structure (SMILES)
12 | – | CCc1ccc(C(=O)Nc2ccc(Oc3cc4cnn(CC)c4cc3-c3cn[nH]c3)c(F)c2)c(=O)n1-c1ccc(F)cc1 [Example 18, N-(3-fluoro-4-(1-ethyl-6-(1H-pyrazol-4-yl)-1H-indazol-5-yloxy)phenyl)-1-(4-fluorophenyl)-6-ethyl-2-oxo-1,2-dihydropyridine-3-carboxamide]
– | 6.8 | CCc1ccc(C(=O)Nc2ccc(Oc3cc4cnn(C)c4cc3-c3cn[nH]c3)c(F)c2)c(=O)n1-c1ccc(F)cc1 [Example 5, N-(3-fluoro-4-(1-methyl-6-(1H-pyrazol-4-yl)-1H-indazol-5-yloxy)phenyl)-1-(4-fluorophenyl)-6-ethyl-2-oxo-1,2-dihydropyridine-3-carboxamide]
